# pEC50: −log10 of the molar value.
# How the values were obtained:
# Format in all cases: functional
# [1] = target: 5-hydroxytryptamine receptor 3A (Mus musculus, UniProt P23979, I186A); assay: Agonist activity at mouse 5HT3A I187A receptor mutant expressed in Xenopus oocyte by two-electrode voltage patch method
# [2] = target: 5-hydroxytryptamine receptor 3A (Mus musculus, UniProt P23979, I189V); assay: Agonist activity at mouse 5HT3A I190V receptor mutant expressed in Xenopus oocyte by two-electrode voltage patch method
# Sequence of 5-hydroxytryptamine receptor 3A (Mus musculus, UniProt P23979, I189V) (P23979 24-489 I190V limits assumed): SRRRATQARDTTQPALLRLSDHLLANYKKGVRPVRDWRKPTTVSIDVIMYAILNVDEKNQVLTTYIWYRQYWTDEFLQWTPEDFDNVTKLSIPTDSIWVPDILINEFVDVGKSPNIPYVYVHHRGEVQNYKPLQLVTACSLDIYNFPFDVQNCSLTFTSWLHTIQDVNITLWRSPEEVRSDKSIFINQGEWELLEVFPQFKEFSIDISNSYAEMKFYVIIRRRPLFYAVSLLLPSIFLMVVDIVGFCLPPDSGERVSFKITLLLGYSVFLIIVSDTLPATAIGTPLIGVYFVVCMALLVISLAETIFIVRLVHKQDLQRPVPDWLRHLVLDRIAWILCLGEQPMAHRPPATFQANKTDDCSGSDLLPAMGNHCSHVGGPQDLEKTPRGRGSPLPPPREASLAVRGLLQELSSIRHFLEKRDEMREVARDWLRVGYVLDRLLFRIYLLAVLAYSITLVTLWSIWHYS
# [3] = target: 5-hydroxytryptamine receptor 3A (Mus musculus, UniProt P23979, H184F); assay: Agonist activity at mouse 5HT3A H185F receptor mutant expressed in Xenopus oocyte by two-electrode voltage patch method
# Sequence of 5-hydroxytryptamine receptor 3A (Mus musculus, UniProt P23979, H184F) (P23979 24-489 H185F limits assumed): as the sequence (P23979 24-489 I190V limits assumed) above, with H162F, V167I counted along it
# [4] = target: 5-hydroxytryptamine receptor 3A (Mus musculus, UniProt P23979, Y152F); assay: Agonist activity at mouse 5HT3A Y153F receptor mutant expressed in Xenopus oocyte by two-electrode voltage patch method
# Sequence of 5-hydroxytryptamine receptor 3A (Mus musculus, UniProt P23979, Y152F) (P23979 24-489 Y153F limits assumed): as the sequence (P23979 24-489 I190V limits assumed) above, with Y130F, V167I counted along it
# [5] = target: 5-hydroxytryptamine receptor 3A (Mus musculus, UniProt P23979, S181A); assay: Agonist activity at mouse 5HT3A S182A receptor mutant expressed in Xenopus oocyte by two-electrode voltage patch method
# Sequence of 5-hydroxytryptamine receptor 3A (Mus musculus, UniProt P23979, S181A) (P23979 24-489 S182A limits assumed): as the sequence (P23979 24-489 I190V limits assumed) above, with S159A, V167I counted along it
# [6] = target: 5-hydroxytryptamine receptor 3A (Mus musculus, UniProt P23979, W182F); assay: Agonist activity at mouse 5HT3A W183F receptor mutant expressed in Xenopus oocyte by two-electrode voltage patch method
# Sequence of 5-hydroxytryptamine receptor 3A (Mus musculus, UniProt P23979, W182F) (P23979 24-489 W183F limits assumed): as the sequence (P23979 24-489 I190V limits assumed) above, with W160F, V167I counted along it
# [7] = target: 5-hydroxytryptamine receptor 3A (Mus musculus, UniProt P23979, Y152A); assay: Agonist activity at mouse 5HT3A Y153A receptor mutant expressed in Xenopus oocyte by two-electrode voltage patch method
# Sequence of 5-hydroxytryptamine receptor 3A (Mus musculus, UniProt P23979, Y152A) (P23979 24-489 Y153A limits assumed): as the sequence (P23979 24-489 I190V limits assumed) above, with Y130A, V167I counted along it
# [8] = target: 5-hydroxytryptamine receptor 3A (Mus musculus, UniProt P23979, Q187A); assay: Agonist activity at mouse 5HT3A Q188A receptor mutant expressed in Xenopus oocyte by two-electrode voltage patch method
# Sequence of 5-hydroxytryptamine receptor 3A (Mus musculus, UniProt P23979, Q187A) (P23979 24-489 Q188A limits assumed): as the sequence (P23979 24-489 I190V limits assumed) above, with Q165A, V167I counted along it
# [9] = target: 5-hydroxytryptamine receptor 3A (Mus musculus, UniProt P23979, L183V); assay: Agonist activity at mouse 5HT3A L184V receptor mutant expressed in Xenopus oocyte by two-electrode voltage patch method
# Sequence of 5-hydroxytryptamine receptor 3A (Mus musculus, UniProt P23979, L183V) (P23979 24-489 L184V limits assumed): as the sequence (P23979 24-489 I190V limits assumed) above, with L161V, V167I counted along it
# [10] = target: 5-hydroxytryptamine receptor 3A (Mus musculus, UniProt P23979, T185A); assay: Agonist activity at mouse 5HT3A T186A receptor mutant expressed in Xenopus oocyte by two-electrode voltage patch method
# Sequence of 5-hydroxytryptamine receptor 3A (Mus musculus, UniProt P23979, T185A) (P23979 24-489 T186A limits assumed): as the sequence (P23979 24-489 I190V limits assumed) above, with T163A, V167I counted along it
# [11] = target: 5-hydroxytryptamine receptor 3A (Mus musculus, UniProt P23979, T180A); assay: Agonist activity at mouse 5HT3A T181A receptor mutant expressed in Xenopus oocyte by two-electrode voltage patch method
# Sequence of 5-hydroxytryptamine receptor 3A (Mus musculus, UniProt P23979, T180A) (P23979 24-489 T181A limits assumed): as the sequence (P23979 24-489 I190V limits assumed) above, with T158A, V167I counted along it
# [12] = target: 5-hydroxytryptamine receptor 3A (Mus musculus, UniProt P23979, H184Y); assay: Agonist activity at mouse 5HT3A H185Y receptor mutant expressed in Xenopus oocyte by two-electrode voltage patch method
# Sequence of 5-hydroxytryptamine receptor 3A (Mus musculus, UniProt P23979, H184Y) (P23979 24-489 H185Y limits assumed): as the sequence (P23979 24-489 I190V limits assumed) above, with H162Y, V167I counted along it
# [13] = target: 5-hydroxytryptamine receptor 3A (Mus musculus, UniProt P23979, Y142F); assay: Agonist activity at mouse 5HT3A Y143F receptor mutant expressed in Xenopus oocyte by two-electrode voltage patch method
# Sequence of 5-hydroxytryptamine receptor 3A (Mus musculus, UniProt P23979, Y142F) (P23979 24-489 Y143F limits assumed): as the sequence (P23979 24-489 I190V limits assumed) above, with Y120F, V167I counted along it
# [14] = target: T1, 5-hydroxytryptamine receptor 3A (Mus musculus, UniProt P23979); assay: Agonist activity at wild type mouse 5HT3A receptor expressed in Xenopus oocyte by two-electrode voltage patch clamp method
# T1 sequence (P23979 whole entry): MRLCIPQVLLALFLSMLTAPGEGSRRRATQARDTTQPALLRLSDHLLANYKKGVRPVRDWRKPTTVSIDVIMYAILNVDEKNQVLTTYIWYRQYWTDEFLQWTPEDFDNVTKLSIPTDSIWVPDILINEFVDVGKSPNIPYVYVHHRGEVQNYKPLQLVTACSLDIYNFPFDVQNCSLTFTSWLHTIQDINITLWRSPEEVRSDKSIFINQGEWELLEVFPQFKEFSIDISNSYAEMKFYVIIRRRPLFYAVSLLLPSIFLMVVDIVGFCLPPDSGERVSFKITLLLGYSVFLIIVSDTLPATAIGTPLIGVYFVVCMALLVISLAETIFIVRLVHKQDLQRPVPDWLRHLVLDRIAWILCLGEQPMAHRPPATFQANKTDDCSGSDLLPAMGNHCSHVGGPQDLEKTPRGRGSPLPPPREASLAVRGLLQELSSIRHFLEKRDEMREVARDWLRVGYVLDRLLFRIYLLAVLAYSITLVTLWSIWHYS
# Sequence of 5-hydroxytryptamine receptor 3A (Mus musculus, UniProt P23979, I186A) (P23979 24-489 I209A limits assumed): as the sequence (P23979 24-489 I190V limits assumed) above, with V167I, I186A counted along it
smiles,measurement,setting,value
N=C(N)NC(=N)Nc1cccc(Cl)c1,pEC50,[1],4.28
same,pEC50,[2],5.70
same,pEC50,[3],5.60
same,pEC50,[4],5.66
same,pEC50,[5],4.57
same,pEC50,[6],4.80
same,pEC50,[7],5.12
same,pEC50,[8],5.64
same,pEC50,[9],5.29
same,pEC50,[10],5.77
same,pEC50,[11],5.66
same,pEC50,[12],5.27
same,pEC50,[13],5.28
same,pEC50,[14],6.10
